In US20210309669A1, “Heterocyclic Spiro Compounds As MAGL Inhibitors” (Pfizer Inc., priority 2018, published 2021):

Tests used:
[1] = molecular target: T1, human recombinant Monoacylglycerol Lipase (Homo sapiens, UniProt Q99685); assay: MAGL inactivation (enzyme progress curves, kinact/KI); assay type: biochemical; details: geometric mean
T1 sequence (Q99685 1-303): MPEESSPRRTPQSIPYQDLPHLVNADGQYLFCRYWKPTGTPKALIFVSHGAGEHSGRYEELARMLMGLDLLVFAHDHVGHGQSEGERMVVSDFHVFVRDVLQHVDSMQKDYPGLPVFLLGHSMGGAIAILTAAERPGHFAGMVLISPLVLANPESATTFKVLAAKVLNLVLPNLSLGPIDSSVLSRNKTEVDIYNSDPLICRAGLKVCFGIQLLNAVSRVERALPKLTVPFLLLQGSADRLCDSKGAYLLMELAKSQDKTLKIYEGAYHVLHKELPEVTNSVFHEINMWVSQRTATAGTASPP
Method: Assessment of MAGL inhibition utilizes human recombinant Monoacylglycerol Lipase and the fluorogenic substrate 7-hydroxycoumarinyl arachidonate (7-HCA, Biomol ST-502). 400 nL of a test compound at decreasing concentration (ranging from 150 μM down to 1.5 nM) was spotted into a 384-well back plate (PerkinElmer, 6007279) using a Labcyte Echo, followed by addition of 10 μL of MAGL enzyme in assay buffer (50 mM HEPES, pH 7.4, 100 mM NaCl, 5 mM MgCl2, 0.1% Triton X-100 and 25% glycerin). An equal volume of 7-HCA in assay buffer with 10% DMSO was added either immediately (T=0 min) or after a 30 minute incubation (T=30 min) to initiate the reaction. The final concentration of MAGL enzyme was […] and 7-HCA substrate was 5 μM. After these dilutions, the final concentration of the test compound ranged from 3 μM to 0.03 nM. The reaction was allowed to progress for 60 minutes, after which the plate was read at an Ex/Em of 340/465. Percent inhibitions were calculated based on control wells containing no compound (0% inhibition) and a control compound (e.g., a MAGL inhibitor whose activity is known or was previously reported in the literature, such as one with about 100% inhibition). IC50 values were generated based on a four parameter fit model using ABASE software from IDBS. See e.g., Wang, Y. et al., “A Fluorescence-Based Assay for Monoacylglycerol Lipase Compatible with Inhibitor Screening,” Assay and Drug Development Technologies, 2008, Vol. 6 (3) pp 387-393 (reporting an assay for measuring MAGL activity).
To measure MAGL inactivation, the same protocol for the (T=0 min) MAGL inhibition IC50 assay was performed with data collected every minute to acquire enzyme progress curves at decreasing concentrations of compound.

[2] = Mouse subcutaneous neuropharmacokinetics study; assay type: in vivo, Male C57Bl6 mice; details: male, C57Bl6, mouse, brain (cerebellum homogenate) and plasma, sc, subcutaneous dose of 1 mg/kg, read-out: Mouse Cb,u/Cp,u
Method: The neuropharmacokinetics studies in mouse were conducted at Wuxi (Shanghai, China) with bioanalysis conducted at BioDuro (Beijing, China) with the exception of the Comparative-compound 3, which bioanalysis was conducted at Wuxi. All in vivo studies were conducted in accordance with regulations and established guidelines using protocols reviewed and approved by the Pfizer Worldwide Research and Development (WRD, or other) Institutional Animal Care and Use Committee.
Male C57Bl6 mice were maintained on a 12-h light/dark cycle in a temperature- and humidity-controlled environment with free access to food and water. The test compounds (Examples 1 and 2 and Comparative Compounds 1-3) were administered as a subcutaneous dose of 1 mg/kg which was delivered in a dose volume of 10 mL/kg. The dose solution for all compounds was formulated in 5% DMSO/5% cremophor/90% saline. Blood and brain samples were collected at 0.5, 1, 2, 4, 8, 12, and 24 h post-dose (n=3 per time point). Blood samples were collected into tubes containing sodium fluoride and 4-(2-aminoethyl)benzenesulfonyl fluoride hydrochloride (AEBSF; final concentration 2 mg/mL) to inhibit hydrolase activity and placed on wet ice. Following centrifugation to afford plasma, the samples were transferred to polypropylene tubes and stored frozen at −20° C. to −80° C. until analysis. Immediately following blood collection the mice were euthanized by cervical dislocation and the brains were removed. The cerebellum was immediately frozen in liquid nitrogen and stored at −80° C. until analysis.
Cerebellum samples were thawed, diluted 1:4 (w/v) with water, and homogenized using an H-speed dispersator. Standards and controls were prepared in a similar manner using a brain homogenate prepared from untreated animals. The plasma standard curves were generated with species specific plasma. All plasma and brain homogenate samples were quantified via LC/MS-MS using multiple reaction monitoring with non-validated methods.
Equilibrium dialysis using standard procedures [See Di et al., “Species independence in brain tissue binding using brain homogenates”; Drug Metab Dispos 39:1270-1277, 2011) were used for determination of the unbound fraction of the test compounds (Examples 1 and 2 and Comparative Compounds 1-3) in mouse plasma (fu,p; see Di et al., “impact of recovery on fraction unbound using equilibrium dialysis”; J Pharm Sci 101:1327-1335, 2012) and unbound fraction in rat brain homogenate (fu,b; see Di et al., “Species independence in brain tissue binding using brain homogenates”; Drug Metab Dispos 39:1270-1277, 2011). The determination of the unbound fraction in plasma also included the addition of AEBSF at a final concentration of 2 mg/mL to the incubation.
The pharmacokinetic parameters were computed by non-compartmental analysis using Watson Bioanalytical LIMS version 7.5. The AUC values were calculated using the linear trapezoidal method for both brain and plasma. Measured total plasma (Cp) and brain (Cb; assuming brain tissue density of 1 g/mL) concentrations were converted to unbound (free) values using the matrix specific binding factor (fu, p or fu,b) to determine free plasma (Cp,u) and free brain (Cb,u) values. All neurocompartmental ratios (Cb,u/Cp,u) were calculated through use of AUC values with the exception of Comparative Compounds 1 and 2 which used the mean of individual animal values due to insufficient data to calculate an AUC value.

**Q.** What does the source list for `O=C(OC(C(F)(F)F)C(F)(F)F)N1CCC2(CC1)C[C@@H](NS(=O)(=O)CC1CC1)CO2` [Example 1, 1,1,1,3,3,3-Hexafluoropropan-2-yl (3R)-3-{[(cyclopropylmethyl)sulfonyl]amino}-1-oxa-8-azaspiro[4.5]decane-8-carboxylate]?
**A.** MAGL kinact/KI [1]: 2990 1/s per M; Kp,uu (unbound brain/unbound plasma ratio) [2]: 1

**Q.** With `O=C(OC(C(F)(F)F)C(F)(F)F)N1CCC2(CC1)C[C@@H](NS(=O)(=O)C1CC1)CO2` [Example 2, 1,1,1,3,3,3-Hexafluoropropan-2-yl (3R)-3-[(cyclopropylsulfonyl)amino]-1-oxa-8-azaspiro[4.5]decane-8-carboxylate] as the compound, how does the “MAGL kinact/KI” value [1] read?
**A.** 2050 1/s per M

**Q.** And the Kp,uu (unbound brain/unbound plasma ratio) [2]?
**A.** 0.8

**Q.** For `O=C(OC(C(F)(F)F)C(F)(F)F)N1CCC2(CCC(NS(=O)(=O)CC3CC3)CO2)CC1` (centres unmarked) [Example 3, 1,1,1,3,3,3-Hexafluoropropan-2-yl 3-{[(cyclopropylmethyl)sulfonyl]amino}-1-oxa-9-azaspiro[5.5]undecane-9-carboxylate], which “MAGL kinact/KI” value [1] is on record?
**A.** 3160 1/s per M
